Experimental data taken from US11220504B2, “Pyrrolo[3,2-d] pyrimidine derivatives for the treatment of viral infections and other diseases” (JANSSEN SCIENCES IRELAND UNLIMITED COMPANY, priority 2012, dated 2022).

Columns and labels:
human TLR7 = biological target: T1, human TLR7 (Homo sapiens, UniProt Q9NYK1); assay: TLR7 cellular reporter assay (HEK293, NFκB-luc); format: cell-based; conditions: HEK293 cells transfected with CMV-TLR7 and NFκB-luc, 6 hours incubation; lowest effective concentration
T1 construct: expressed in transfected cells; host or cells: HEK293 cells, transient transfection with CMV-TLR7 plasmid and NFκB-luc plasmid
T1 sequence (Q9NYK1 27-1049): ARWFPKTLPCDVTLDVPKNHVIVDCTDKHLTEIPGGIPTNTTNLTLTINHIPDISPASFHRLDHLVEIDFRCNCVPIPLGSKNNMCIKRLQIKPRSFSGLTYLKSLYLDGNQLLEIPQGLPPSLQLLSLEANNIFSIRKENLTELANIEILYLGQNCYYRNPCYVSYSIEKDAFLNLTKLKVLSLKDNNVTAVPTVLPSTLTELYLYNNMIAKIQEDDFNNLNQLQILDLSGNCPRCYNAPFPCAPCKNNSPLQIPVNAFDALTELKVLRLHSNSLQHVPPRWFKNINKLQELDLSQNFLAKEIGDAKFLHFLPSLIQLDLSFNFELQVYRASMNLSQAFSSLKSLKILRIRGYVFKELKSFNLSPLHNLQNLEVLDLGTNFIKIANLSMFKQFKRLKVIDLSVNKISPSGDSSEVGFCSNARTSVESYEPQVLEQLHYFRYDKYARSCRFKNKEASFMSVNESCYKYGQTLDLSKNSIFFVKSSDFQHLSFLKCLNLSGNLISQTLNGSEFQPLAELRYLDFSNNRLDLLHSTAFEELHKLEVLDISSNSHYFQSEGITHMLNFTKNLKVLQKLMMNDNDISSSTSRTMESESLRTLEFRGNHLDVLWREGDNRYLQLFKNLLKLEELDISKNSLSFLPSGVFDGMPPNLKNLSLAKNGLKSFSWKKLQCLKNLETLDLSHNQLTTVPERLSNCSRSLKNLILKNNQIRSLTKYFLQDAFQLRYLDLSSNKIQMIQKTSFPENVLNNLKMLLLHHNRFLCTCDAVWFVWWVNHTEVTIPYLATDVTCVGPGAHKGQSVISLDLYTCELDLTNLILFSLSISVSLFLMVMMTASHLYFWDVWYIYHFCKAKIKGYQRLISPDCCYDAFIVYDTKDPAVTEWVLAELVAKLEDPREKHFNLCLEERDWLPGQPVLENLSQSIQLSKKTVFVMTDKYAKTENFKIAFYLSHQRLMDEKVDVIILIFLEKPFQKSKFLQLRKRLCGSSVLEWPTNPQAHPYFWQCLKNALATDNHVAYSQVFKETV
Method: (§1) The ability of compounds to activate human TLR7 and/or TLR8 was assessed in a cellular reporter assay using HEK293 cells transiently transfected with a TLR7 or TLR8 expression vector and NFκB-luc reporter construct.
(§2) Briefly, HEK293 cells were grown in culture medium (DMEM supplemented with 10% FCS and 2 mM Glutamine). […] Thirty microliters of cells were then dispensed into each well in 384-well plates, where 10 μL of compound in 4% DMSO was already present. Following 6 hours incubation at 37° C., 5% CO2, the luciferase activity was determined by adding 15 μL of Steady Lite Plus substrate (Perkin Elmer) to each well and readout performed on a ViewLux ultraHTS microplate imager (Perkin Elmer). Dose response curves were generated from measurements performed in quadruplicates.

human TLR8 = biological target: T2, human TLR8 (Homo sapiens, UniProt Q9NR97); assay: TLR8 cellular reporter assay (HEK293, NFκB-luc); format: cell-based; conditions: HEK293 cells transfected with CMV-TLR8 and NFκB-luc, 6 hours incubation; lowest effective concentration
T2 construct: expressed in transfected cells; host or cells: HEK293 cells, transient transfection with TLR8 plasmid and NFκB-luc plasmid
T2 sequence (Q9NR97 27-1041): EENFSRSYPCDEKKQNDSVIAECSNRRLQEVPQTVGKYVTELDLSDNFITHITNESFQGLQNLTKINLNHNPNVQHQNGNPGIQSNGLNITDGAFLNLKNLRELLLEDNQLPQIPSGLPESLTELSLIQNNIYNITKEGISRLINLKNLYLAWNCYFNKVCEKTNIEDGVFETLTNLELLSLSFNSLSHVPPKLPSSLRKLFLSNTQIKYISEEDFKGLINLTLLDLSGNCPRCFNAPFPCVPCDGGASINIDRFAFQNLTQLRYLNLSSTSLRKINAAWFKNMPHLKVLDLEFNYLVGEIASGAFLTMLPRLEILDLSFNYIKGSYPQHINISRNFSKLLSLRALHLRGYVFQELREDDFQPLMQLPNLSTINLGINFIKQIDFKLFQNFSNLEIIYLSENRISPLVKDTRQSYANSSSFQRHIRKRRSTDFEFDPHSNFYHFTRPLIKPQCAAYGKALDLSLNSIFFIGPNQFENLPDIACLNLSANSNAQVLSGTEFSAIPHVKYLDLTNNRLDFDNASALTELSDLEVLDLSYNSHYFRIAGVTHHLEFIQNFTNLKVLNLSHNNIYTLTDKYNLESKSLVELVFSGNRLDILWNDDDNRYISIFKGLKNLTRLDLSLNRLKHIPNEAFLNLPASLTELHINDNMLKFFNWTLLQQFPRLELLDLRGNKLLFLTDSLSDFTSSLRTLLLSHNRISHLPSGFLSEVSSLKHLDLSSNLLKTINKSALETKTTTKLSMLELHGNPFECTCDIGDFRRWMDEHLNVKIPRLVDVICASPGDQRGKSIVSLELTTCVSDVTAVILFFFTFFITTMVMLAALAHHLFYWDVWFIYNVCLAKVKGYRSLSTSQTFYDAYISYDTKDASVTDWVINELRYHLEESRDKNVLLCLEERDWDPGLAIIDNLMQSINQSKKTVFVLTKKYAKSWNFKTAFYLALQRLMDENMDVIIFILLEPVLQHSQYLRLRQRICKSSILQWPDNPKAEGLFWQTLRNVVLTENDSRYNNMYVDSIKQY
Method: as §1, §2

[1] = test system: interferon-stimulated responsive elements (ISRE); assay: Activation of ISRE promoter elements by conditioned media from PBMC (HEK-ISREluc); format: cell-based, human; conditions: Homo sapiens; conditioned media from PBMC transferred to HEK-ISREluc cells, 24 hours; lowest effective concentration; read-out: PBMC LEC
Method: The potential of compounds to induce IFN-I was also evaluated by measuring the activation of interferon-stimulated responsive elements (ISRE) by conditioned media from PBMC. The ISRE element of sequence […] (SEQ. ID NO:1) is highly responsive to the STAT1-STAT2-IRF 9 transcription factor, activated upon binding of IFN-I to their receptor IFNAR (Clontech, PT3372-5W). […] A HEK293 cell line stably transfected with pISRE-Luc (HEK-ISREluc) was established to profile of the conditioned PBMC cell culture media.
Briefly, PBMCs were prepared from buffy coats of at least two donors using a standard Ficoll centrifugation protocol. Isolated PBMCs were resuspended in RPMI medium supplemented with 10% human AB serum and 2×10^5 cells/well were dispensed into 384-well plates containing compounds (70 μL total volume). After overnight incubation, 10 μL of supernatant was transferred to 384-well plates containing 5×10^3 HEK-ISREluc cells/well in 30 μL (plated the day before). Following 24 hours of incubation, activation of the ISRE elements was measured by assaying luciferase activity using 40 μL/well Steady Lite Plus substrate (Perkin Elmer) and measured with ViewLux ultraHTS microplate imager (Perkin Elmer). The stimulating activity of each compound on the HEK-ISREluc cells was reported as LEC value, defined as the compound concentration applied to the PBMCs resulting in a luciferase activity at least two fold above the standard deviation of the assay. The LEC in turn indicates the degree of ISRE activation on transfer of a defined amount of PBMC culture medium. Recombinant interferon α-2a (Roferon-A) was used as a standard control compound.

Structure (SMILES)	TLR7 LEC (human TLR7) [µM]	TLR8 LEC (human TLR8) [µM]	minimal effective concentration [1] [µM]
CCCCNc1nc(N)nc2ccn(CCOC)c12 [Compound 4]	0.60	13.5	0.4
CCCCNc1nc(N)nc2ccn(Cc3cccc(F)c3)c12 [Compound 5]	0.30	>25	0.2
CCCCNc1nc(N)nc2ccn(Cc3ccccc3Br)c12 [Compound 6]	1.3	>25	0.7
CCCCNc1nc(N)nc2ccn(Cc3ccccc3-c3ccccc3)c12 [Compound 7]	0.61	>25	0.8
CCCCNc1nc(N)nc2ccn(CCCC)c12 [Compound 8]	0.49	1.7	0.15
CCCCNc1nc(N)nc2ccn(CCC)c12 [Compound 9]	0.53	2.1	0.22
CCCCNc1nc(N)nc2ccn(CCc3ccccc3)c12 [Compound 11]	1.5	3.5	0.56
CCCCNc1nc(N)nc2ccn(Cc3ccccc3Cl)c12 [Compound 13]	0.80	>25	0.89
CCCC[C@@H](CO)Nc1nc(N)nc2ccn(Cc3cccnn3)c12 [Compound 14]	0.52	6.57	0.01
CCC[C@@H](CO)Nc1nc(N)nc2ccn(Cc3cccnn3)c12 [Compound 15]	5.84	>25	0.1
CCCCNc1nc(N)nc2ccn(Cc3ccc(F)c(Cl)c3)c12 [Compound 16]	0.89	>25	0.6
CCC[C@@H](CO)Nc1nc(N)nc2ccn(Cc3ccccc3)c12 [Compound 17]	0.07	12.5	0.01
CCCCNc1nc(N)nc2ccn(C(C)C)c12 [Compound 19]	2.5	7.06	0.62
CCCCNc1nc(N)nc2ccn(Cc3cc(C)on3)c12 [Compound 20]	0.14	1.3	0.02
CCC[C@@H](CCO)Nc1nc(N)nc2ccn(Cc3ccccc3)c12 [Compound 21]	0.009	7.4	0.0007
CCC[C@@H](CO)Nc1nc(N)nc2ccn(Cc3ccccn3)c12 [Compound 22]	0.48	9.2	0.02
CCCNc1nc(N)nc2ccn(Cc3ccccc3)c12 [Compound 23]	0.83	>25	0.27
CCC[C@@H](CCO)Nc1nc(N)nc2ccn(Cc3ccccn3)c12 [Compound 24]	0.02	6.47	0.0007
CCCC[C@@H](CCO)Nc1nc(N)nc2ccn(Cc3ccccn3)c12 [Compound 25]	0.01	2.84	0.001
